Here are results for 12 compounds from US8962637B2, “Bicyclic compounds and their uses as dual c-SRC/JAK inhibitors” (Debiopharm S.A., priority 2010, dated 2015).

For one experiment, the system named is Mda-Mb-231 cells. Briefly: Cell viability assay (XTT assay), Mda-Mb-231. The format is cell-based. The conditions noted are these: Homo sapiens, 72 hrs. As to the method: Mda-Mb-231 or A549 cells were seeded onto a 96-well micro plate. Next day compounds were added to cells and incubated for 72 hrs. Compound treatment was done in triplicates. After 72 hrs cell culture media was aspirated from the wells and XTT working solution was added and plates were incubated for 2-5 hrs. The absorbance of the samples was measured with a spectrophotometer at a wavelength of 465 nm. EC50 values were calculated using Graphpad Prism. Tumor cell lines used in the examples of the present invention were procured from ATCC. Description of the cell lines is included in the following table: […]
A general note: Formazan colour is commonly taken as a measure of viable cells.

The subject of another experiment is A549 cells. Briefly: Cell viability assay (XTT assay), A549. It counts as cell-based. The conditions noted are these: Homo sapiens, 72 hrs. The procedure: Next day compounds were added to cells and incubated for 72 hrs. Compound treatment was done in triplicates. After 72 hrs cell culture media was aspirated from the wells and XTT working solution was added and plates were incubated for 2-5 hrs. […] EC50 values were calculated using Graphpad Prism. Tumor cell lines used in the examples of the present invention were procured from ATCC. Description of the cell lines is included in the following table: […]

Another experiment has as its system pStat3. Briefly: In-Cell-Western blot assay for pStat3 (ICW) in A431 cells. It counts as cell-based. The conditions noted are these: Homo sapiens, A-431, 2 hrs, read-out: pSTAT3 inhibition. The procedure: A431 cells were seeded onto a 96-well micro plate. After overnight serum starvation cells were incubated with compounds for 2 hrs. Cells were fixed with 4% paraformaldehyde in PBS and then permeabilized with 0.1% Triton X-100 in PBS (PBST). Cells were blocked with 5% BSA in PBST for 2 hrs, followed by overnight incubation with phospho Stat3 antibody. Cells were washed and incubated with europium-labeled anti-rabbit secondary antibody for 2 hrs. After washing enhancement solution was added to the wells. The micro-plate was read on the Victor instrument at the Europium setting. The Hoechst readings were used to normalize for cell number. IC50 values were calculated with the normalized europium values using Graphpad Prism.

Another experiment addresses c-Src (Homo sapiens (Human), UniProt P12931). Description: TR-FRET c-Src kinase assay. The format is biochemical. The conditions noted are these: ATP 50 μM; for inhibition at 0.1 µM: read-out: c-SRC % inhibition at 100 nM, 100 nM; for inhibition at 1 µM: read-out: c-SRC % inhibition at 1 μM. The procedure:
(§1) Compounds were screened in the TR-FRET assay for JAK2 and c-Src kinase inhibition. Ultra light poly GT (Perkin Elmer) was used as the substrate for JAK2 and c-Src with the ATP concentration of 10 μM and 50 μM, respectively. […] The dose-response curve fitting was done using GraphPad Prism software.
Background: Time-resolved FRET reads energy transfer from a long-lived donor to a nearby acceptor.

The target of a further experiment is JAK2 (Homo sapiens (Human), UniProt O60674). Briefly: TR-FRET JAK2 kinase assay. The conditions noted are these: ATP 10 μM; for inhibition at 0.1 µM: read-out: JAK2 % inhibition at 100 nM, 100 nM; for inhibition at 1 µM: read-out: JAK2 % inhibition at 1 μM. It counts as biochemical. The procedure: as §1
Another experiment deals with A431 cancer cell line. Description: Inhibition of cell growth in A431. The format is cell-based. The conditions noted are these: Homo sapiens, A-431.

Each structure is given as a SMILES string.

Chain of c-Src (P12931 whole entry, looked up): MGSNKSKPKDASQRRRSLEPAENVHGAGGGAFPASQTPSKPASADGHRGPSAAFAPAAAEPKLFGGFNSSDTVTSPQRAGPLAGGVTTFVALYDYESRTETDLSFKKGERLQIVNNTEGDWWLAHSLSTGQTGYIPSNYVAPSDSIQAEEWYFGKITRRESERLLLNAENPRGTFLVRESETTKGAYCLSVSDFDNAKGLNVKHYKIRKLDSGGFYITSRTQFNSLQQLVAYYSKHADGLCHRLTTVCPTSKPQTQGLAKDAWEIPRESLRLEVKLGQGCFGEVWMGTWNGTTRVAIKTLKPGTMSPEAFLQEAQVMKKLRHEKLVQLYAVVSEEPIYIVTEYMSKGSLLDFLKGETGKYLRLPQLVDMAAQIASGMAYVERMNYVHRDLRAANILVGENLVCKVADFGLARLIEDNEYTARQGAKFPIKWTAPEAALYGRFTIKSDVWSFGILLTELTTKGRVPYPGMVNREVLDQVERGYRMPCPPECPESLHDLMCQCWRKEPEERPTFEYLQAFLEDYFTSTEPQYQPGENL
Chain of JAK2 (O60674 whole entry): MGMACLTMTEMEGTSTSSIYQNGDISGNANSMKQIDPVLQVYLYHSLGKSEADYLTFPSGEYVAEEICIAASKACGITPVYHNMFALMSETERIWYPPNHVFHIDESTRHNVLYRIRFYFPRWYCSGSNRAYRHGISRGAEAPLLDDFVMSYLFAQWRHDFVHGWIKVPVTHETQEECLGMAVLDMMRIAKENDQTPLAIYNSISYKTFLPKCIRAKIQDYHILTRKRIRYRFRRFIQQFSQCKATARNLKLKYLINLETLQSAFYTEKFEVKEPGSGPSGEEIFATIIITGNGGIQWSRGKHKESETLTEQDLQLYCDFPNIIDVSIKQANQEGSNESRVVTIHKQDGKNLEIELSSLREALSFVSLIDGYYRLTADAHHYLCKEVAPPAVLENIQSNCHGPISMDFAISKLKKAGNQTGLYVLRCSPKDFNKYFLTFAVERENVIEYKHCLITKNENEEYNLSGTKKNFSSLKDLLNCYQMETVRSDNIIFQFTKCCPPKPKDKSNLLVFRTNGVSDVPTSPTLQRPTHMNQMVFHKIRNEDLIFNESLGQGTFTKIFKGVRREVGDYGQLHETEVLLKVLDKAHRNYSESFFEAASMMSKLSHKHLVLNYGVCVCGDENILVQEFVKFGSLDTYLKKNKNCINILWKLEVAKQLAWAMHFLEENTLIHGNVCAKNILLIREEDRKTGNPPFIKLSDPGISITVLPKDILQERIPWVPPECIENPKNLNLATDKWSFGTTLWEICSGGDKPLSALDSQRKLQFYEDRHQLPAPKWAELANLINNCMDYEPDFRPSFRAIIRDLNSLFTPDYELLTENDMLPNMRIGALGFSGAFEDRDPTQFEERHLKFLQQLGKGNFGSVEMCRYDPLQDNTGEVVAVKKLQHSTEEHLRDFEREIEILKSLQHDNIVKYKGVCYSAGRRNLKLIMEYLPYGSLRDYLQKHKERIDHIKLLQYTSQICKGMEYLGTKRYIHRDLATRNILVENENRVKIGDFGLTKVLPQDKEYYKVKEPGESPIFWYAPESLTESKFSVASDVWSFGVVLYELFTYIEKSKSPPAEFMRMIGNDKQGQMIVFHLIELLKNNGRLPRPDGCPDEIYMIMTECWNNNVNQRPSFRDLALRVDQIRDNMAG

Broadly, the EC50 is the concentration needed to bring the measured effect to its halfway point. Low readings indicate a more potent agent, high ones a less potent agent. For `Cc1cnc(Nc2ccc(OCCN3CCCC3)cc2)nc1Nc1cccc(S(=O)(=O)NC(C)(C)C)c1` [TG101348, reference compound], the values for the EC50 with Mda-Mb-231 cells and with A549 cells were 680 nM and 1200 nM, respectively. For the same compound, the IC50 in the experiment on pStat3 was > 10000 nM.
On to `Cc1ccc(NC(=O)c2cccc(C(F)(F)F)c2)cc1N1CCc2nc(Nc3ccc(C(=O)N4CCN(C)CC4)nc3)ncc2C1` [Compound 132, N-(4-Methyl-3-{2-[6-(4-methyl-piperazine-1-carbonyl)-pyridin-3-ylamino]-7,8-dihydro-5H-pyrido[4,3-d]pyrimidin-6-yl}-phenyl)-3-trifluoromethyl-benzamide], for which the values for the IC50 on c-Src, at JAK2 and in the experiment with pStat3 were 5 nM, 3 nM and 480 nM, respectively. Besides, the EC50 in the experiment with Mda-Mb-231 cells is 41 nM; in the experiment with A549 cells, 47 nM.
One may read the inhibition as the share of the control response that was lost under treatment. Consider `O=C(Nc1ccc(Cl)c(N2CCc3nc(Nc4ccc(OCCN5CCCC5)cc4)ncc3C2=O)c1)c1cccc(C(F)(F)F)c1` [Compound 181, N-(4-Chloro-3-{5-oxo-2-[4-(2-pyrrolidin-1-yl-ethoxy)-phenylamino]-7,8-dihydro-5H-pyrido[4,3-d]pyrimidin-6-yl}-phenyl)-3-trifluoromethyl-benzamide], for which the results for the inhibition at 0.1 µM on c-Src and at JAK2 were 53% and 85%, respectively. In addition, the inhibition at 1 µM at c-Src turned out to be 77%; on JAK2, 93%. Moreover, the EC50 in the experiment on Mda-Mb-231 cells worked out at 3340 nM; in the experiment on A549 cells, 2540 nM; in the experiment with A431 cancer cell line it was 1300 nM.
Regarding `Cc1ccc(NC(=O)c2cccc(C(F)(F)F)c2)cc1N1CCc2nc(Nc3cccc(CN4CCN(C)CC4)c3)ncc2C1` [Compound 137, N-(4-Methyl-3-{2-[3-(4-methyl-piperazin-1-ylmethyl)-phenylamino]-7,8-dihydro-5H-pyrido[4,3-d]pyrimidin-6-yl]-phenyl)-3-trifluoromethyl-benzamide], the results for the IC50 on c-Src and with pStat3 were 7 nM and 670 nM, respectively. Also, the concentration for a half-maximal effect (EC50) came to 74 nM in the experiment on Mda-Mb-231 cells, 426 nM in the experiment with A549 cells and 670 nM in the experiment on A431 cancer cell line.
With `Cc1ccc(NC(=O)c2cccc(C(F)(F)F)c2)cc1N1CCc2nc(Nc3ccc(C(=O)NCCO)cc3)ncc2C1` [Compound 98], the IC50 against c-Src amounted to 1 nM; at JAK2 it was 7 nM; in the experiment with pStat3 it was 60 nM. In addition, the EC50 in the experiment with Mda-Mb-231 cells amounted to 50 nM; in the experiment with A431 cancer cell line, 61 nM.
Regarding `Cc1ccc(NC(=O)c2cccc(C(F)(F)F)c2)cc1N1CCc2nc(Nc3ccc(OCCCN4CCOCC4)cc3)ncc2C1=O` [Compound 182, N-(4-Methyl-3-{2-[4-(3-morpholin-4-yl-propoxy)-phenylamino]-5-oxo-7,8-dihydro-5H-pyrido[4,3-d]pyrimidin-6-yl}-phenyl)-3-trifluoromethyl-benzamide], the results for the inhibition at 0.1 µM at c-Src and at JAK2 were 51% and 55%, respectively. In addition, the inhibition at 1 µM at c-Src stood at 80%; at JAK2 it was 85%. Also, the EC50 came to 2760 nM in the experiment with Mda-Mb-231 cells, 1080 nM in the experiment on A549 cells and 5070 nM with A431 cancer cell line.
In the case of `Cc1ccc(NC(=O)c2cccc(C(C)(C)C)c2)cc1N1CCc2nc(Nc3ccc(N4CCN(C)CC4)cc3)ncc2C1=O` [Compound 86], the results for the EC50 in the experiment with Mda-Mb-231 cells, with A549 cells and in the experiment on A431 cancer cell line were 530 nM, 78 nM and 570 nM, respectively. Also, in the experiment on pStat3, the IC50 was determined as 580 nM.
As to `CNC(=O)c1ccc(Nc2ncc3c(n2)CCN(c2cc(NC(=O)c4cccc(C(F)(F)F)c4)ccc2C)C3)cn1` [Compound 83, 5-{6-[2-Methyl-5-(3-trifluoromethyl-benzoylamino)-phenyl]-5,6,7,8-tetrahydro-pyrido[4,3-d]pyrimidin-2-ylamino}-pyridine-2-carboxylic acid methylamide], the IC50 came out at 4 nM at c-Src, 32 nM at JAK2 and 240 nM in the experiment on pStat3. The EC50 stood at 305 nM in the experiment on Mda-Mb-231 cells and 240 nM in the experiment with A431 cancer cell line.
In the case of `Cc1ccc(NC(=O)c2cccc(C(F)(F)F)c2)cc1N1CCc2nc(Nc3ccc(C(=O)N4CCCC4)cc3)ncc2C1` [Compound 99, N-(4-Methyl-3-{2-[4-(pyrrolidine-1-carbonyl)-phenylamino]-7,8-dihydro-5H-pyrido[4,3-d]pyrimidin-6-yl}-phenyl)-3-trifluoromethyl-benzamide], the IC50 at c-Src was 6 nM; against JAK2 it was 14 nM; in the experiment on pStat3, 300 nM. Moreover, the EC50 worked out at 120 nM with Mda-Mb-231 cells and 290 nM in the experiment on A431 cancer cell line.
As to `Cc1ccc(NC(=O)c2cccc(C(F)(F)F)c2)cc1N1CCc2nc(Nc3ccc(OCCN4CCCC4)cc3)ncc2C1=O` [Compound 7, N-(4-Methyl-3-{5-oxo-2-[4-(2-pyrrolidin-1-yl-ethoxy)-phenylamino]-7,8-dihydro-5H-pyrido[4,3-d]pyrimidin-6-yl}-phenyl)-3-trifluoromethyl-benzamide], the IC50 against c-Src is 16 nM; against JAK2, 83 nM; with pStat3 it was 450 nM. Moreover, the EC50 with Mda-Mb-231 cells was 3600 nM; with A549 cells, 3400 nM; in the experiment on A431 cancer cell line it was 1450 nM.
As to `Cc1ccc(NC(=O)c2cccc(C(F)(F)F)c2)cc1N1CCc2nc(Nc3ccc(OCCCN4CCN(C)CC4)cc3)ncc2C1=O` [Compound 180, N-[4-Methyl-3-(2-{4-[3-(4-methyl-piperazin-1-yl)-propoxy]-phenylamino}-5-oxo-7,8-dihydro-5H-pyrido[4,3-d]pyrimidin-6-yl)-phenyl]-3-trifluoromethyl-benzamide], the inhibition at 0.1 µM on c-Src was found to be 66%; on JAK2, 67%. Further, the inhibition at 1 µM was 87% at c-Src and 91% at JAK2. Moreover, the results for the EC50 in the experiment on Mda-Mb-231 cells, in the experiment on A549 cells and with A431 cancer cell line were 1620 nM, 1480 nM and 1070 nM, respectively. Further, the IC50 in the experiment on pStat3 stood at 140 nM.
Take `Cc1ccc(NC(=O)c2cccc(C(F)(F)F)c2)cc1N1CCc2nc(Nc3ccc(S(=O)(=O)NC4CC4)cc3)ncc2C1` [Compound 165, N-{3-[2-(4-Cyclopropylsulfamoyl-phenylamino)-7,8-dihydro-5H-pyrido[4,3-d]pyrimidin-6-yl]-4-methyl-phenyl}-3-trifluoromethyl-benzamide]: the IC50 is 16 nM against c-Src, 54 nM on JAK2 and 257 nM in the experiment on pStat3. The inhibition at 0.1 µM on c-Src is 93%; on JAK2, 74%. The figures for the inhibition at 1 µM at c-Src and at JAK2 were 98% and 93%, respectively. The EC50 in the experiment on Mda-Mb-231 cells was 440 nM; with A431 cancer cell line it was 320 nM.
